Measurements reported in patent US8835466B2, “Synthesis and uses of pyroglutamic acid derivatives” (Prodimed, S.A., priority 2006, dated 2014).

Test system: Lewis lung cells (lung cell carcinoma)
Assay: Effect of 9d in combination with Cisplatin on tumour growth, Lewis lung (Example 13)
Type: in vivo, C57BL/6J mice
Conditions: for Inhibition of the in vivo growth of Lewis lung tumour in inbred mice, in words / SURFACE Overall values (Mean) / SURFACE Overall values (Median) / VOLUME Overall values (Mean) / VOLUME Overall values (Median): 9d 250 ng; for Inhibition of the in vivo growth of Lewis lung tumour in inbred mice, in words: Cisplatin 65 μg i.p.; for SURFACE Overall values (Mean) / SURFACE Overall values (Median) / VOLUME Overall values (Mean) / VOLUME Overall values (Median): Cisplatin 65 μg, or both; for Differences in Lewis Lung tumour growth rate vs. placebo, statistical significance p (Mann-Whitney U test): either in surface or volume
Description: This assay was made in order to check the effect on in vivo tumour growth in mice challenged with Lewis lung cells. Their effect will be compared with the combination of chemotherapeutic agents plus 9d and/or placebo. Lewis Lung is a lung cell carcinoma originated in C57BL/6J mice strain, and therefore syngeneic in mice with C57BL/6J genetic background (Rodrigo Garzón M, Tirapu Fernández de la Cuesta […], Noel […] and […]. Use of Gene Therapy in a Subcutaneous Murine Model of Lung Cancer. Arch Bronconeumology. 42: 526-532; 2006). Lewis lung cells (CLS, Eppelheim, Germany) were maintained in vitro by serial passages every 3-4 days. […] Louis, Mo., USA) by seeding 5×10^6 cells onto 75 cm^2 culture flasks. Subcultures were carried out by collecting detached cells after treatment with trypsin-EDTA (Sigma, St. Louis, Mo., USA). Tumour cells, collected from 48 hour cultures, were used as source of Lewis Lung cells for the studies described below. […] Tumours were established by subcutaneous inoculation in the right hind flank. Mice were inoculated with 0.2 mL containing 2×10^5 viable cells. The day of subcutaneous inoculation will be considered Day 0 of the test. Mice were observed daily and the tumour size recorded twice a week. This was carried out by measuring two perpendicular diameters (d1/d2) with a calliper. These measures were used to obtain both tumour surface and volume: […] Results were expressed as single values and/or as the mean±SD or median from each experimental group. A case-control study was performed with treated and control mice in order to determine whether differences between placebo, 9d, Cisplatin or 9d+Cisplatin were present. The data obtained (tumour surface and volume) were tested for Normal distribution within the groups (Kolmogorov Smirnov test p<0.05). […] The U-test of Mann Withney was chosen for being one of the better known non-parametrical tests, anyway, results for this test are equivalent both to those of Wilcoxon's sum of ranges and Kruskal-Wallis two-groups test. We excluded of the study animals that have undetectable or unscored tumour on 31th day after tumour inoculation. Due to the high dispersion of data, outlayers were excluded of the study.

[1] = day 10 after tumour inoculation
[2] = day 13 after tumour inoculation
[3] = day 17 after tumour inoculation
[4] = day 20 after tumour inoculation
[5] = day 24 after tumour inoculation
[6] = day 27 after tumour inoculation
[7] = day 31 after tumour inoculation

Row | SMILES | Inhibition of the in vivo growth of Lewis lung tumour in inbred mice, in words | SURFACE Overall values (Mean) (day 0 after tumour inoculation) [mm^2] | SURFACE Overall values (Median) (day 0 after tumour inoculation) [mm^2] | VOLUME Overall values (Mean) (day 0 after tumour inoculation) [mm^3] | VOLUME Overall values (Median) (day 0 after tumour inoculation) [mm^3] | SURFACE Overall values (Mean) [1] [mm^2] | SURFACE Overall values (Median) [1] [mm^2] | VOLUME Overall values (Mean) [1] [mm^3] | VOLUME Overall values (Median) [1] [mm^3] | SURFACE Overall values (Mean) [2] [mm^2] | SURFACE Overall values (Median) [2] [mm^2] | VOLUME Overall values (Mean) [2] [mm^3] | VOLUME Overall values (Median) [2] [mm^3] | SURFACE Overall values (Mean) [3] [mm^2] | SURFACE Overall values (Median) [3] [mm^2] | VOLUME Overall values (Mean) [3] [mm^3] | VOLUME Overall values (Median) [3] [mm^3] | SURFACE Overall values (Mean) [4] [mm^2] | SURFACE Overall values (Median) [4] [mm^2] | VOLUME Overall values (Mean) [4] [mm^3] | further results
1 | Br.N[C@]1(C[n+]2ccccc2)C[C@H](C(=O)O)NC1=O.[Br-] (single isomer, unassigned; isomer 4) [isomer 4, 3S,5R-1-(3-Amino-5-carboxy-2-oxopyrrolidin-3-ylmethyl)pyridinium bromide hidrobromide] | inhibit the in vivo growth | 0 | 0 | 0 | 0 | 2 | 0 | 2.27 | 0 | 6.47 | 4 | 12.5 | 4 | 20.13 | 24 | 52.73 | 48 | 34.33 | 36 | 112.3 | VOLUME Overall values (Median) [4]: 108 mm^3; SURFACE Overall values (Mean) [5]: 60.6 mm^2; SURFACE Overall values (Median) [5]: 80 mm^2; VOLUME Overall values (Mean) [5]: 253.77 mm^3; VOLUME Overall values (Median) [5]: 320 mm^3; SURFACE Overall values (Mean) [6]: 104.8 mm^2; SURFACE Overall values (Median) [6]: 88 mm^2; VOLUME Overall values (Mean) [6]: 557.13 mm^3; VOLUME Overall values (Median) [6]: 364.5 mm^3; SURFACE Overall values (Mean) [7]: 141.8 mm^2; SURFACE Overall values (Median) [7]: 130 mm^2; VOLUME Overall values (Mean) [7]: 887.17 mm^3; VOLUME Overall values (Median) [7]: 665.5 mm^3; Differences in Lewis Lung tumour growth rate vs. placebo, statistical significance p (Mann-Whitney U test) (all days scored after the day 13th): < 0.05
2 | N.N.[Cl][Pt][Cl] [Cisplatin, reference compound] | inhibit the in vivo growth | 0 | 0 | 0 | 0 | 2.4 | 0 | 3.27 | 0 | 6.73 | 4 | 11.23 | 4 | 20.73 | 25 | 49.97 | 56 | 58.33 | 49 | 269.1 | VOLUME Overall values (Median) [4]: 171.5 mm^3; SURFACE Overall values (Mean) [5]: 106.07 mm^2; SURFACE Overall values (Median) [5]: 90 mm^2; VOLUME Overall values (Mean) [5]: 619.43 mm^3; VOLUME Overall values (Median) [5]: 405 mm^3; SURFACE Overall values (Mean) [6]: 160.07 mm^2; SURFACE Overall values (Median) [6]: 120 mm^2; VOLUME Overall values (Mean) [6]: 1076.9 mm^3; VOLUME Overall values (Median) [6]: 600 mm^3; SURFACE Overall values (Mean) [7]: 204.93 mm^2; SURFACE Overall values (Median) [7]: 169 mm^2; VOLUME Overall values (Mean) [7]: 1530.4 mm^3; VOLUME Overall values (Median) [7]: 1080 mm^3; Differences in Lewis Lung tumour growth rate vs. placebo, statistical significance p (Mann-Whitney U test) (days 10th, 13th and 17 th): < 0.05
